The numbers were not newly measured in patent US10427959B2, “Method and system for the autonomous self-limiting generation of chlorine dioxide” (TRUOX, INC., priority 2016, dated 2019), which cites them from elsewhere.

For the series the following is noted: saturated aqueous solution.

Read-outs that look alike come from different tables or passages of the source.

Take `CC1(C)C(=O)N(Cl)C(=O)N1Br` [BCDMH, 1,3-bromo-chloro-5,5-dimethylhydantoin]: the solubility (at 25° C.) was 0.2 wt %.

With `CC1(C)C(=O)N(Br)C(=O)N1Br` [DBDMH, 1,3-dibromo-5,5-dimethylhydantoin], the solubility (at 20° C.) is on record as 0.1 wt %.
